Experimental data from patent US20240158446A1, “CYCLIC COMPOUND HAVING SELECTIVE INHIBITORY ACTION ON KRAS OVER HRAS AND NRAS” (CHUGAI SEIYAKU KABUSHIKI KAISHA, priority 2021, published 2024).
Where two headings read alike, the source gives them in different places. Where a SMILES comes first, the peptide text is derived from it. Bridges are numbered along the chain shown (N, C = ends). [ ]: non-standard residue; d: D form. The star is where a group is joined. hPhe(3-Cl-4-CF3) = N[C@@H](CCc1ccc(C(F)(F)F)c(Cl)c1)C(=O)O; NPrPhe(4-CF3) = CCCN[C@@H](Cc1ccc(C(F)(F)F)cc1)C(=O)O; NEtPhe(4-Me) = CCN[C@@H](Cc1ccc(C)cc1)C(=O)O; NMePhe(4-Me) = CN[C@@H](Cc1ccc(C)cc1)C(=O)O; NMeGly(cPent) = CN[C@H](C(=O)O)C1CCCC1; NMeD = CN[C@@H](CC(=O)O)C(=O)O; NMeL = CN[C@@H](CC(C)C)C(=O)O; NMeS = CN[C@@H](CO)C(=O)O; Pip = O=C(O)[C@@H]1CCCCN1; Morpholide = C1CN(*)CCO1; NMeA = CN[C@@H](C)C(=O)O; Ac5c = NC1(C(=O)O)CCCC1; Aze = O=C(O)[C@@H]1CCN1; Sar = CNCC(=O)O

Tests used:
[1] = target: GDP-bound NRAS wild-type protein (Homo sapiens, UniProt P01111); assay: Binding to NRAS by surface plasmon resonance (SPR), Single Cycle Kinetics; settings: SPR, GDP-bound NRAS wild-type protein vs GDP-bound KRAS wild-type protein
Chain of GDP-bound NRAS wild-type protein (P01111 whole entry): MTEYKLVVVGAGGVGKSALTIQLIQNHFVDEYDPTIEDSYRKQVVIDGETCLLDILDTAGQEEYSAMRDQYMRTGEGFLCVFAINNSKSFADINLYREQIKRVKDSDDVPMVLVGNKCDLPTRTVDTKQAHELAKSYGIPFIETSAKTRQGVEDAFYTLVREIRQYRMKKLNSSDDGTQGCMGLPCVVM

[2] = target: GDP-bound KRAS wild-type protein (Homo sapiens, UniProt P01116); assay: Binding to KRAS by surface plasmon resonance (SPR), Single Cycle Kinetics; settings: GDP-bound KRAS wild-type protein, read-out: KRAS KD
Chain of GDP-bound KRAS wild-type protein (P01116 whole entry): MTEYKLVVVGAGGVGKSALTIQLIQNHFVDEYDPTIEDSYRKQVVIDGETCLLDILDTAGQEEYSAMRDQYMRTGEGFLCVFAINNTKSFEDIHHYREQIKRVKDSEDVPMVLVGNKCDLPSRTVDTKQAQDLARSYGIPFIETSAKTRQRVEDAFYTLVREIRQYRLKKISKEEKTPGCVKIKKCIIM

[3] = target: GDP-bound HRAS wild-type protein (Homo sapiens, UniProt P01112); assay: Binding to HRAS by surface plasmon resonance (SPR), Single Cycle Kinetics; settings: SPR, GDP-bound HRAS wild-type protein vs GDP-bound KRAS wild-type protein
Chain of GDP-bound HRAS wild-type protein (P01112 whole entry): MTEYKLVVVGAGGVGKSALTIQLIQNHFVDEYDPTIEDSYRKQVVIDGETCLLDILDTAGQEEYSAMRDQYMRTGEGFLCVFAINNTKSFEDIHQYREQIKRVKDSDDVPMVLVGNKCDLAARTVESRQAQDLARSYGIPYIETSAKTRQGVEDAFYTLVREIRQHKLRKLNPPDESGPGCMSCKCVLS

[4] = SPR Single Cycle Kinetics, 1:1 binding model

Row | SMILES | NRAS/KRAS (ratio of KD value for NRAS to KD value for KRAS) [1] | Kd [2, 4] | HRAS/KRAS (ratio of KD value for HRAS to KD value for KRAS) [3] | further results
1 | CCCN1C(=O)[C@@H]2CCN2C(=O)[C@H](C)N(C)C(=O)[C@H]([C@@H](C)CC)NC(=O)[C@H](CC(C)C)N(C)C(=O)C[C@@H](C(=O)N2CCOCC2)N(C)C(=O)[C@H](C2CCCC2)N(C)C(=O)C2(CCCC2)NC(=O)[C@@H]2CCCCN2C(=O)[C@H](CCc2ccc(C(F)(F)F)c(Cl)c2)NC(=O)CN(C)C(=O)[C@@H]1Cc1ccc(C(F)(F)F)cc1 [PP0284] ([NMeL]I[NMeA][Aze][NPrPhe(4-CF3)][Sar][hPhe(3-Cl-4-CF3)][Pip][Ac5c][NMeGly(cPent)][NMeD]-Morpholide; lactam N-11) | C (A compound having a KD ratio of 0.1 or more and less than 3 is denoted as C) | 0.67 nM | B (a compound having 3 or more and less than 10 is denoted as B) | –
2 | CC[C@H](C)[C@@H]1NC(=O)[C@H](CC(C)C)N(C)C(=O)C[C@@H](C(=O)N(C)C)N(C)C(=O)[C@H](C2CCCC2)N(C)C(=O)C2(CCCC2)NC(=O)[C@@H]2CC(F)(F)CN2C(=O)[C@H](CCc2cc(F)c(C(F)(F)F)c(F)c2)NC(=O)CN(C)C(=O)[C@H](Cc2ccc(C(F)(F)F)cc2)N2CCCC[C@@H](C2=O)N(C)C(=O)CN(C)C1=O [PP0576] | – | 0.019 nM | – | NRAS/KRAS (ratio of KD value with respect to NRAS to KD value with respect to KRAS) [1]: C (A compound having a KD ratio of 0.1 or more and less than 3 is denoted as C); HRAS/KRAS (ratio of KD value with respect to HRAS to KD value with respect to KRAS) [3]: B (a compound having 3 or more and less than 10 is denoted as B)
3 | CC[C@H](C)[C@@H]1NC(=O)[C@H](CC(C)C)N(C)C(=O)C[C@@H](C(=O)N2CCOCC2)N(C)C(=O)[C@H](C2CCCC2)N(C)C(=O)C2(CCCC2)NC(=O)[C@@H]2CCCN2C(=O)[C@H](CCc2ccc(C(F)(F)F)c(Cl)c2)NC(=O)CN(C)C(=O)[C@H](Cc2ccc(C)cc2)N(CC)C(=O)CN(C)C(=O)CN(C)C1=O [PP0022] ([NMeL]I[Sar][Sar][NEtPhe(4-Me)][Sar][hPhe(3-Cl-4-CF3)]P[Ac5c][NMeGly(cPent)][NMeD]-Morpholide; lactam N-11) | B (a compound having 3 or more and less than 10 is denoted as B) | 0.18 nM | C (A compound having a KD ratio of 0.1 or more and less than 3 is denoted as C) | –
4 | C#CC[C@H]1C(=O)N[C@@H]([C@@H](C)CC)C(=O)N(C)CC(=O)N(C)[C@H]2C/C=C\CCN(C2=O)[C@@H](Cc2ccc(C(F)(F)F)cc2)C(=O)N(C)CC(=O)N[C@@H](CCc2ccc(C(F)(F)F)c(Cl)c2)C(=O)N2CC3(CC3)C[C@H]2C(=O)NC2(CC(C)(C)C2)C(=O)N(C)[C@@H](C2CCCC2)C(=O)N(C)[C@H](C(=O)N(C)C)CC(=O)N1C [PP2980] | A (a compound having 10 or more and less than 20 is denoted as A) | – | B (a compound having 3 or more and less than 10 is denoted as B) | Kd ([2]; SPR, Single Cycle Kinetics): 0.23 nM
5 | CC[C@H](C)[C@@H]1NC(=O)[C@H](CC(C)C)N(C)C(=O)C[C@@H](C(=O)N2CCOCC2)N(C)C(=O)[C@H](C2CCCC2)N(C)C(=O)C2(CCCC2)NC(=O)[C@@H]2CCCN2C(=O)[C@H](CCc2ccc(C(F)(F)F)c(Cl)c2)NC(=O)CN(C)C(=O)[C@H](Cc2ccc(C)cc2)N2CCCC[C@@H](C2=O)N(C)C(=O)CN(C)C1=O [PP0316] | C (A compound having a KD ratio of 0.1 or more and less than 3 is denoted as C) | 0.054 nM | B (a compound having 3 or more and less than 10 is denoted as B) | –
6 | CC[C@H](C)[C@@H]1NC(=O)[C@H](CC(C)C)N(C)C(=O)C[C@@H](C(=O)N2CCOCC2)N(C)C(=O)[C@H](C2CCCC2)N(C)C(=O)C2(CCCC2)NC(=O)[C@@H]2CCCN2C(=O)[C@H](CCc2ccc(C(F)(F)F)c(Cl)c2)NC(=O)CN(C)C(=O)[C@H](Cc2ccc(C)cc2)N(C)C(=O)[C@H](CO)N(C)C(=O)CN(C)C1=O [PP0037] ([NMeL]I[Sar][NMeS][NMePhe(4-Me)][Sar][hPhe(3-Cl-4-CF3)]P[Ac5c][NMeGly(cPent)][NMeD]-Morpholide; lactam N-11) | C (A compound having a KD ratio of 0.1 or more and less than 3 is denoted as C) | 7.6 nM | C (A compound having a KD ratio of 0.1 or more and less than 3 is denoted as C) | –
7 | CCC[C@H]1C(=O)N[C@@H]([C@@H](C)CC)C(=O)N(C)CC(=O)N(C)[C@H]2CCCCCN(C2=O)[C@@H](Cc2ccc(C(F)(F)F)cc2)C(=O)N(C)CC(=O)N[C@@H](CCc2cc(F)c(C(F)(F)F)c(F)c2)C(=O)N2C[C@H](OCC)C[C@H]2C(=O)NC2(CCC2)C(=O)N(C)[C@@H](C2CCCC2)C(=O)N(C)[C@H](C(=O)N2CCOCC2)CC(=O)N1C [PP0679] | – | 0.58 nM | – | NRAS/KRAS (ratio of KD value with respect to NRAS to KD value with respect to KRAS) [1]: B (a compound having 3 or more and less than 10 is denoted as B); HRAS/KRAS (ratio of KD value with respect to HRAS to KD value with respect to KRAS) [3]: B (a compound having 3 or more and less than 10 is denoted as B)
8 | CCCN1C(=O)CN(C)C(=O)CN(C)C(=O)[C@H]([C@@H](C)CC)NC(=O)[C@H](CC(C)C)N(C)C(=O)C[C@@H](C(=O)N2CCOCC2)N(C)C(=O)[C@H](C2CCCC2)N(C)C(=O)[C@@H](C)NC(=O)[C@@H]2CCCN2C(=O)[C@H](CCc2ccc(C(F)(F)F)c(Cl)c2)NC(=O)CN(C)C(=O)[C@@H]1Cc1ccc(C(F)(F)F)cc1 [PP0150] ([NMeL]I[Sar][Sar][NPrPhe(4-CF3)][Sar][hPhe(3-Cl-4-CF3)]P[dA][NMeGly(cPent)][NMeD]-Morpholide; lactam N-11) | B (a compound having 3 or more and less than 10 is denoted as B) | 1.7 nM | C (A compound having a KD ratio of 0.1 or more and less than 3 is denoted as C) | –
9 | CCO[C@@H]1C[C@H]2C(=O)NC3(CC(C)(C)C3)C(=O)N(C)[C@@H](C3CCCC3)C(=O)N(C)[C@H](C(=O)N(C)C)CC(=O)N(C)[C@@H](CC3CC3)C(=O)N[C@@H]([C@@H](C)CC)C(=O)N(C)CC(=O)N(C)[C@H]3C/C=C\CCN(C3=O)[C@@H](Cc3ccc(C(F)(F)F)cc3)C(=O)N(C)CC(=O)N[C@@H](CCc3cc(F)c(C(F)(F)F)c(F)c3)C(=O)N2C1 [PP1568] | – | – | – | NRAS/KRAS (ratio of KD value for NRAS to KD value for KRAS) ([1]; KD ratio class): A (a compound having 10 or more and less than 20 is denoted as A); Kd ([2]; SPR, Single Cycle Kinetics, 1:1 binding model): 0.031 nM; HRAS/KRAS (ratio of KD value for HRAS to KD value for KRAS) ([3]; KD ratio class): A (a compound having 10 or more and less than 20 is denoted as A)
10 | CC[C@@H]1C[C@H]2C(=O)NC3(CCCC3)C(=O)N(C)[C@@H](C3CCCC3)C(=O)N(C)[C@H](C(=O)N(C)CC)CC(=O)N(C)[C@@H](C)C(=O)N[C@@H]([C@@H](C)CC)C(=O)N(C)CC(=O)N(C)[C@H]3C/C=C\CCN(C3=O)[C@@H](Cc3ccc(C(F)(F)F)cc3)C(=O)N(C)CC(=O)N[C@@H](CCc3cc(F)c(C(F)(F)F)c(F)c3)C(=O)N2C1 [PP2271] | A (a compound having 10 or more and less than 20 is denoted as A) | – | A (a compound having 10 or more and less than 20 is denoted as A) | Kd ([2]; SPR, Single Cycle Kinetics): 0.29 nM
